Results reported in ChEMBL document CHEMBL5729568, “Ras inhibitors” (2023).
pIC50: −log10 of the molar value. Entries after “also recorded” stand apart in the source; their conditions may differ.

Experiments:
[1] = (§1) Biochemical Assay: A variety of Ras proteins may be inhibited by compounds of the present invention (e.g., K-Ras, N-Ras, H-Ras, and mutants thereof at positions 12, 13 and 61, such as G12C, G12D, G12V, G12S, G13C, G13D, and Q61L, and others described herein). The purpose of this biochemical assay is to measure the ability of test compounds to covalently label nucleotide-loaded K-Ras isoforms. […] The sample is incubated at 25? C. for a time period of up to 24 hours prior to quenching by the addition of 10 uL of 5% Formic Acid. Quenched samples are centrifuged at 15000 rpm for 15 minutes in a benchtop centrifuge before injecting a 10 uL aliquot onto a reverse phase C4 column and eluting into the mass spectrometer with an increasing acetonitrile gradient in the mobile phase. Analysis of raw data may be carried out using Waters MassLynx MS software, with % bound calculated from the deconvoluted protein peaks for labeled and unlabeled K-Ras.
[2] = as §1; remark: listed apart in the source
[3] = as §1; remark: listed apart in the source
[4] = as §1; remark: listed apart in the source
[5] = as §1; remark: listed apart in the source
[6] = as §1; remark: listed apart in the source
[7] = as §1; remark: listed apart in the source

Row | SMILES | IC50 [1] | IC50 [2] | IC50 [3] | IC50 [4] | pIC50 [5] | pIC50 [6] | IC50 [7] | pIC50 [2] | pIC50 [4] | IC50 [5] | IC50 [6] | pIC50 [3] | pIC50 [7] | pIC50 [1]
1 | C=CC(=O)C1CC[C@H](C(=O)C(C)[C@H](C(=O)N[C@H]2Cc3nc(cs3)-c3ccc4c(c3)c(c(-c3cccnc3C(C)OC)n4CC)CC(C)(C)COC(=O)[C@@H]3CCCN(N3)C2=O)C(C)C)C1 (some centres not stated) | in the range around 0.55 µM | in the range around 5.5 µM | in the range around 5.5 µM | in the range around 5.5 µM | < 5.00 | < 5.00 | in the range around 5.5 µM |  |  |  |  |  |  | 
2 | C=CC(=O)N1CC(OC[C@H](C(=O)N[C@H]2Cc3cc(cc(C(F)F)c3)-c3ccc4c(c3)c(c(-c3cccnc3C(C)OC)n4CC)CC(C)(C)COC(=O)[C@@H]3CCCN(N3)C2=O)C(C)C)C1 (some centres not stated) | in the range around 5.5 µM |  | in the range around 5.5 µM |  | < 5.00 | < 5.00 | in the range around 5.5 µM | < 5.00 | < 5.00 |  |  |  |  | 
3 | C=CC(=O)N1CC(OC[C@H](C(=O)N[C@H]2Cc3cccc(c3)-c3ccc4c(c3)c(c(-c3cccnc3C(C)OC)n4CC(F)(F)F)CC(C)(C)COC(=O)[C@@H]3CCCN(N3)C2=O)C(C)C)C1 (some centres not stated) | in the range around 0.055 µM | in the range around 5.5 µM | in the range around 0.55 µM | in the range around 5.5 µM |  |  | in the range around 0.55 µM |  |  | in the range around 5.5 µM | in the range around 5.5 µM |  |  | 
4 | COC(C)c1ncccc1-c1c2c3cc(ccc3n1CC(F)(F)F)-c1cc(cc(C(F)F)c1)C[C@H](NC(=O)[C@@H](COC1CN(C(=O)C#CC(C)(C)N(C)C)C1)C(C)C)C(=O)N1CCC[C@H](N1)C(=O)OCC(C)(C)C2 (some centres not stated) | in the range around 0.55 µM |  |  |  | < 5.00 | < 5.00 |  | < 5.00 | < 5.00 |  |  | < 5.00 | < 5.00 | 
5 | C=CC(=O)N1CCOC2(CCN(C(=O)N(C)[C@H](C(=O)N[C@H]3C[C@H]4CN(CCO4)c4ccc5c(c4)c(c(-c4cccnc4C(C)OC)n5CC)CC(C)(C)COC(=O)[C@@H]4CCCN(N4)C3=O)C(C)C)CC2)C1 (some centres not stated) | in the range around 0.55 µM | in the range around 0.55 µM | in the range around 0.55 µM | in the range around 5.5 µM |  |  | in the range around 0.055 µM |  |  | in the range around 5.5 µM | in the range around 0.55 µM |  |  | 
6 | CCn1c(-c2cccnc2C(C)OC)c2c3cc(ccc31)N1CCO[C@@H](C[C@H](NC(=O)[C@@H](COC3CN(C(=O)C#CC(C)(C)N(C)C)C3)C(C)C)C(=O)N3CCC[C@H](N3)C(=O)OCC(C)(C)C2)C1 (some centres not stated) |  |  |  |  | < 5.00 | < 5.00 | in the range around 5.5 µM | < 5.00 | < 5.00 |  |  | < 5.00 |  | > 8.00
7 | C=CC(=O)N1CC[C@H](C(=O)N(C)[C@H](C(=O)N[C@H]2C[C@H]3CN(CCO3)c3ccc4c(c3)c(c(-c3cccnc3C(C)OC)n4CC)CC(C)(C)COC(=O)[C@@H]3CCCN(N3)C2=O)C(C)C)C1 (some centres not stated) | in the range around 0.55 µM | in the range around 5.5 µM |  |  | < 5.00 |  | in the range around 5.5 µM |  | < 5.00 |  | in the range around 5.5 µM | < 5.00 |  | 
8 | COC(C)c1ncccc1-c1c2c3cc(ccc3n1CC(F)(F)F)-c1csc(n1)C[C@H](NC(=O)[C@@H](COC1CN(C(=O)C#CC(C)(C)N(C)C)C1)C(C)C)C(=O)N1CCC[C@H](N1)C(=O)OCC(C)(C)C2 (some centres not stated) |  | in the range around 5.5 µM | in the range around 5.5 µM | in the range around 5.5 µM | < 5.00 |  | in the range around 5.5 µM |  |  |  | in the range around 5.5 µM |  |  | > 8.00
9 | COC(C)c1ncccc1-c1c2c3cc(ccc3n1CC(F)(F)F)N1CCO[C@@H](C[C@H](NC(=O)[C@@H](COC3CN(C(=O)C#CC(C)(C)N(C)C)C3)C(C)C)C(=O)N3CCC[C@H](N3)C(=O)OCC(C)(C)C2)C1 (some centres not stated) |  |  |  |  | < 5.00 |  | in the range around 5.5 µM | < 5.00 | < 5.00 |  | in the range around 5.5 µM | < 5.00 |  | > 8.00
10 | CCn1c(-c2cccnc2C(C)OC)c2c3cc(ccc31)-c1cccc(c1)C[C@H](NC(=O)[C@@H](COC1CN(C(=O)C#CC(C)(C)N3CCC3)C1)C(C)C)C(=O)N1CCC[C@H](N1)C(=O)OCC(C)(C)C2 (some centres not stated) | in the range around 0.055 µM |  | in the range around 5.5 µM |  | < 5.00 |  | in the range around 5.5 µM | < 5.00 | < 5.00 |  | in the range around 5.5 µM |  |  | 
11 | CCn1c(-c2cccnc2C(C)OC)c2c3cc(ccc31)-c1csc(n1)C[C@H](NC(=O)CCOC1CN(C(=O)C#CC(C)(C)N(C)C)C1)C(=O)N1CCC[C@H](N1)C(=O)OCC(C)(C)C2 (some centres not stated) |  | in the range around 5.5 µM | in the range around 5.5 µM | > 10 µM and in the range around 5.5 µM |  |  | in the range around 5.5 µM |  |  | in the range around 5.5 µM | in the range around 5.5 µM |  |  | > 8.00
12 | CCn1c(-c2cccnc2C(C)OC)c2c3cc(ccc31)-c1cc(F)cc(c1)C[C@H](NC(=O)[C@@H](COC1CN(C(=O)C#CC(C)(C)N(C)C)C1)C(C)C)C(=O)N1CCC[C@H](N1)C(=O)OCC(C)(C)C2 (some centres not stated) | in the range around 0.055 µM |  | in the range around 5.5 µM |  | < 5.00 |  | in the range around 5.5 µM | < 5.00 | < 5.00 |  | in the range around 5.5 µM |  |  | 
13 | C=CC(=O)N1CC[C@H](C(=O)N(C)[C@H](C(=O)N[C@H]2Cc3cc(sn3)-c3ccc4c(c3)c(c(-c3cccnc3[C@H](C)OC)n4CC)CC(C)(C)COC(=O)[C@@H]3CCCN(N3)C2=O)C(C)C)C1 |  |  |  | in the range around 5.5 µM; also recorded: in the range around 550 nM |  |  |  |  |  |  |  |  |  | 
14 | C=CC(=O)N1CCO[C@H]2CN(C(=O)N(C)[C@H](C(=O)N[C@H]3C[C@H]4CN(CCO4)c4ccc5c(c4)c(c(-c4cccnc4C(C)OC)n5CC)CC(C)(C)COC(=O)[C@@H]4CCCN(N4)C3=O)C(C)C)C[C@H]21 (some centres not stated) | in the range around 0.55 µM | in the range around 5.5 µM | in the range around 5.5 µM | > 10 µM and in the range around 5.5 µM |  |  | in the range around 0.55 µM |  |  | in the range around 5.5 µM | in the range around 5.5 µM |  |  | 
15 | COC(C)c1ncccc1-c1c2c3cc(ccc3n1CC(F)(F)F)-c1cccc(c1)C[C@H](NC(=O)[C@@H](COC1CN(C(=O)C#CC(C)(C)N(C)C)C1)C(C)C)C(=O)N1CCC[C@H](N1)C(=O)OCC(C)(C)C2 (some centres not stated) |  | in the range around 5.5 µM | in the range around 5.5 µM |  | < 5.00 |  | in the range around 5.5 µM |  | < 5.00 |  | in the range around 5.5 µM |  |  | > 8.00
16 | COC(C)c1ncccc1-c1c2c3cc(ccc3n1CC(F)(F)F)-c1cc(F)cc(c1)C[C@H](NC(=O)[C@@H](COC1CN(C(=O)C#CC(C)(C)N(C)C)C1)C(C)C)C(=O)N1CCC[C@H](N1)C(=O)OCC(C)(C)C2 (some centres not stated) |  | in the range around 5.5 µM | in the range around 5.5 µM |  | < 5.00 |  | in the range around 5.5 µM |  | < 5.00 |  | in the range around 5.5 µM |  |  | > 8.00
17 | C=CC(=O)N1CC[C@H](C(=O)N(C)C(C(=O)N[C@H]2C[C@H]3CN(CCO3)c3ccc4c(c3)c(c(-c3cccnc3C(C)OC)n4CC)CC(C)(C)COC(=O)[C@@H]3CCCN(N3)C2=O)C(C)C)C1 (some centres not stated) | in the range around 0.55 µM | in the range around 5.5 µM |  |  | < 5.00 |  | in the range around 5.5 µM |  | < 5.00 |  | in the range around 5.5 µM | < 5.00 |  | 
18 | C=CC(=O)Nc1ncc(C(=O)N(C)[C@H](C(=O)N[C@H]2Cc3cccc(c3)-c3ccc4c(c3)c(c(-c3cccnc3C(C)OC)n4CC)CC(C)(C)COC(=O)[C@@H]3CCCN(N3)C2=O)C(C)C)n1C (some centres not stated) |  | in the range around 5.5 µM | in the range around 0.55 µM | in the range around 5.5 µM |  |  |  |  |  | in the range around 5.5 µM | in the range around 5.5 µM |  | > 8.00 | > 8.00
19 | C=CC(=O)N1CCO[C@H]2CN(C(=O)N(C)[C@H](C(=O)N[C@H]3Cc4cc(C(F)F)cc(n4)-c4ccc5c(c4)c(c(-c4cccnc4C(C)OC)n5CC(F)(F)F)CC(C)(C)COC(=O)[C@@H]4CCCN(N4)C3=O)C(C)C)C[C@H]21 (some centres not stated) | in the range around 0.55 µM | in the range around 5.5 µM | in the range around 0.55 µM | in the range around 5.5 µM |  |  | in the range around 0.055 µM |  |  | in the range around 5.5 µM | in the range around 5.5 µM |  |  | 
20 | C=C(C)C(=O)N1CC(N(C)C(=O)N(C)[C@H](C(=O)N[C@H]2Cc3nc(cs3)-c3ccc4c(c3)c(c(-c3cccnc3[C@H](C)OC)n4CC)CC(C)(C)COC(=O)[C@@H]3CCCN(N3)C2=O)C(C)C)C1 (atropisomer, axis not shown) |  | in the range around 5.5 µM | in the range around 5.5 µM | in the range around 5.5 µM |  |  | in the range around 5.5 µM |  |  |  | in the range around 5.5 µM |  |  | 
21 | C=CC(=O)N1CC[C@H](C(=O)N(C)[C@H](C(=O)N[C@H]2Cc3nc(ns3)-c3ccc4c(c3)c(c(-c3cncnc3[C@H](C)OC)n4CC)CC(C)(C)CC=C[C@@H]3CCCN(N3)C2=O)C(C)C)C1 (stereo in doubt) |  |  |  |  | < 5.00 | < 5.00 |  | < 5.00 |  |  |  |  | < 5.00 | < 5.00
